# Measurements from patent US7091202B2, “4-arylspirocycloalkyl-2-aminopyrimidine carboxamide KCNQ potassium channel modulators” (Bristol-Myers Squibb Company, priority 2004, dated 2006).
# Biological target: T1, hQ23 (HEK-293 cell line stably transfected with one of the members of the KCNQ family) (Homo sapiens, UniProt O43525+O43526)
# T1 construct: expressed in transfected cells; host or cells: HEK-293, stably transfected
# Test: Thallium flux assay for KCNQ channel blockers (FLIPR, BTC dye)
# Format: cell-based
# Details: hQ23 cells, thallium flux
# Method: Thallium Flux Assay for KCNQ channel blockers. Approximately 20,000 cells/well of an HEK-293 cell line stably transfected with one of the members of the KCNQ family were plated into clear-bottom, black-walled, poly-D-lysine coated, 384 well assay plates in 20 μl/well of low chloride plating medium. Low chloride plating medium was composed of the following: sodium gluconate, 109 mM; potassium gluconate, 5.4 mM; hemi-calcium gluconate, 3.6 mM; magnesium sulfate, 0.8 mM; sodium bicarbonate, 26.2 mM; sodium phosphate monobasic, 1.2 mM; glutamine, 2 mM; glucose, 5 mM; HEPES (pH 7.3) 10 mM, 10× concentration of vitamins (Gibco/LifeTechnologies catalog #11120-052) and 1× concentration of amino acids (Gibco/LifeTechnologies catalog #11130-051).
# Following overnight incubation in a 5% CO2 incubator at 37° C., the cells in the plates were loaded with 20 μl/well of a dye loading solution containing the acetomethoxy ester of the thallium-sensitive fluorescent dye BTC, BTC-AM (2 μM) and pluronic acid (0.02% w/v) in chloride free assay buffer. Chloride free assay buffer was composed of the following: sodium gluconate, 140 mM; potassium gluconate, 2.5 mM; hemi-calcium gluconate, 6 mM; hemi-magnesium gluconate, 2 mM; glucose, 5 mM; HEPES (pH 7.3), 10 mM.
# Following incubation in the dye loading solution for from 45–90 min at room temperature, the dye loading solution was removed by aspiration and replaced with 40 μl/well of chloride free assay buffer.
# Prior to addition to cell plates, test compound and standard compounds were dissolved in DMSO to 3 mM concentration. Compounds were then diluted from the 3 mM stock to 100-fold over the final assay concentration in DMSO. Finally, compounds in DMSO were diluted from 100-fold over the final assay concentration to 5-fold over the final assay concentration in chloride free assay buffer.
# Ten μl/well of compounds at 5-fold over the final assay concentration were then added to the cell plates. This represents a 1:5 dilution, yielding the final test concentration. The wells used for test compounds were A1–P20. Wells A21–P22 contained a standard ‘blocker’ and a fully efficacious concentration (positive control). Wells A23–P24 contained chloride free assay buffer containing 1% DMSO (negative control).
# Following addition of test compounds, the plates were loaded onto the Molecular Devices FLIPR. The 488 nm line of the argon laser was used to excite the BTC and the emission filter was a 540(+/−30) nm. Images were collected at 1 Hz. Ten seconds of baseline were collected and then the FLIPR was used to add 13 μl/well of a stimulus buffer composed of Tl2SO4, 25 mM; sodium gluconate, 30 mM; potassium sulfate, 50 mM; hemi-calcium gluconate, 6 mM; hemi-magnesium gluconate, 2 mM; glucose, 5 mM; HEPES (pH 7.3), 10 mM in chloride free assay buffer. Images were collected for an additional 60 seconds.
# For data analysis, the amplitude of the average of the negative controls was subtracted from all wells. The amplitudes of the test compounds were then compared to the value of four standard deviations of the negative control wells. The lowest concentration of a test compound sufficient to generate a signal amplitude greater than or equal to four standard deviations from the amplitude of the negative controls was defined as the minimal active concentration.
# For generating IC50 values, compounds were serially diluted in 1:3 volume increments to produce a 10 point concentration series. IC50 values were calculated by fitting the resulting amplitudes to a single-site logistic equation. IC50 was defined as the concentration of test compound required to yield 50% of the response of the positive control.
# T1 sequence (O43526 whole entry): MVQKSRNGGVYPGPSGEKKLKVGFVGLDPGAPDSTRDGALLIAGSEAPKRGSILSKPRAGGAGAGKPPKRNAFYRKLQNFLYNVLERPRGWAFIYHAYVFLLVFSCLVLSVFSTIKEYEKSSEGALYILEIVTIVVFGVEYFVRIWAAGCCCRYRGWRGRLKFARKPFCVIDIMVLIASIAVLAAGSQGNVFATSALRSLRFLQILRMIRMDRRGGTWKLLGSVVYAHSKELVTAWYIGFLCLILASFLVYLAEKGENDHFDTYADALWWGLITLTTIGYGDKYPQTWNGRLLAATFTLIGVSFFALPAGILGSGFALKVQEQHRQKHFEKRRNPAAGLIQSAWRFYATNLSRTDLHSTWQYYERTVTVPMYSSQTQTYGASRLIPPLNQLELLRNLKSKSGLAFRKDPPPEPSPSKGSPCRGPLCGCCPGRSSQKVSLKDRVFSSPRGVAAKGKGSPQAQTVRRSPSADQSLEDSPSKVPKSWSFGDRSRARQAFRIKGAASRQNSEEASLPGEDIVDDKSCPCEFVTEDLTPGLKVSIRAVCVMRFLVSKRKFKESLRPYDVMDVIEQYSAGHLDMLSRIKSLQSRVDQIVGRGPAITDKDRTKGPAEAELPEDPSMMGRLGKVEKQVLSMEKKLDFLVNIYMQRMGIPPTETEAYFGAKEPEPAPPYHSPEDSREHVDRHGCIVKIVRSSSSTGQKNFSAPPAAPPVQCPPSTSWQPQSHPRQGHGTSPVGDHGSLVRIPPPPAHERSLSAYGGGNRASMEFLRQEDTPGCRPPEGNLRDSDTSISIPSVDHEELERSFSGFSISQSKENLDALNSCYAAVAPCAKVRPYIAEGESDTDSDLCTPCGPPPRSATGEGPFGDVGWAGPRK
# T1 sequence (O43525 whole entry): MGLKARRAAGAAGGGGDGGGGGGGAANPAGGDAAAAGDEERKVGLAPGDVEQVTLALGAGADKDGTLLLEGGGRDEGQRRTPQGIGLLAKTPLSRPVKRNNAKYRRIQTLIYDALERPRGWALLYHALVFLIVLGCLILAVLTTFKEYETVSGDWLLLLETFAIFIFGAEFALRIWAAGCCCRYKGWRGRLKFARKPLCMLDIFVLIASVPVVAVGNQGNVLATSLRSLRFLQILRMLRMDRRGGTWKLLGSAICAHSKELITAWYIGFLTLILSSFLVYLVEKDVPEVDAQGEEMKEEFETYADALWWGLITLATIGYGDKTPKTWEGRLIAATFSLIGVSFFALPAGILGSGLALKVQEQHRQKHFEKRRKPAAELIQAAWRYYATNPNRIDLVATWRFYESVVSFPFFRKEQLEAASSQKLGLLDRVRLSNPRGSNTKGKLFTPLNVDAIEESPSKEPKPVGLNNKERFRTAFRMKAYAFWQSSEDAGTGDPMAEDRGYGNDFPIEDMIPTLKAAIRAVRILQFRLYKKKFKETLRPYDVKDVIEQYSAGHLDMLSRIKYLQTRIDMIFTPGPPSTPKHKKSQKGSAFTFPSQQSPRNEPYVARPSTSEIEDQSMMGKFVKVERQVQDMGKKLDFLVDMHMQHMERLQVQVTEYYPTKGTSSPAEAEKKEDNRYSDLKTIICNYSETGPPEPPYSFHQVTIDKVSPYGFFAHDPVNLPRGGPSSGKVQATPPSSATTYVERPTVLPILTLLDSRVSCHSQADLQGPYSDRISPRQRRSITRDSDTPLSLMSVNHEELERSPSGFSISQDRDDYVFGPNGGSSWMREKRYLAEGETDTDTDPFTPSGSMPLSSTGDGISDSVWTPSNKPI
row,Compound,EC50 [nM]
1,"CC1CCN(c2ncc(C(=O)N3CCc4ccccc4C3)c(C3(c4ccccc4)CCCC3)n2)CC1 [Example 74, isoquinoline, 1,2,3,4-tetrahydro-2-[[2-(4-methyl-1-piperidinyl)-4-(1-phenylcyclopentyl)-5-pyrimidinyl]carbonyl]-]",191
2,"CCN(C(=O)c1cnc(N2CCC(C)CC2)nc1C1(c2ccccc2)CCCC1)C1CCCCC1 [Example 76, 5-pyrimidinecarboxamide, N-cyclohexyl-N-ethyl-2-(4-methyl-1-piperidinyl)-4-(1-phenylcyclopentyl)-]",900
3,"CC1CCN(c2ncc(C(=O)N3CCCCC3)c(C3(c4ccccc4)CCCC3)n2)CC1 [Example 77, piperidine, 1-[[2-(4-methyl-1-piperidinyl)-4-(1-phenylcyclopentyl)-5-pyrimidinyl]carbonyl]-]",164
4,"CN(CCc1ccccc1)C(=O)c1cnc(N2CCCC2)nc1C1(c2ccccc2)CCCC1 [Example 79, 5-pyrimidinecarboxamide, N-methyl-4-(1-phenylcyclopentyl)-N-(2-phenylethyl)-2-(1-pyrrolidinyl)-]",444
5,"CC1CCCN(c2ncc(C(=O)N(C)CCc3ccccc3)c(C3(c4ccccc4)CCCC3)n2)C1 (stereo not shown) [Example 80, 5-pyrimidinecarboxamide, N-methyl-2-(3-methyl-1-piperidinyl)-4-(1-phenylcyclopentyl)-N-(2-phenylethyl)-]",880
6,"CC1CCN(c2ncc(C(=O)N(C)CCc3ccccc3)c(C3(c4ccccc4)CCCC3)n2)CC1 [Example 81, 5-pyrimidinecarboxamide, N-methyl-2-(4-methyl-1-piperidinyl)-4-(1-phenylcyclopentyl)-N-(2-phenylethyl)-]",437
7,"CCN(Cc1ccccc1)C(=O)c1cnc(NC2CCC(C)CC2)nc1C1(c2ccccc2)CCCC1 (stereo not shown) [Example 84, 5-pyrimidinecarboxamide, N-ethyl-2-[(4-methylcyclohexyl)amino]-4-(1-phenylcyclopentyl)-N-(phenylmethyl)-]",829
8,"CCN(Cc1ccccc1)C(=O)c1cnc(N2CCCC(C)C2)nc1C1(c2ccccc2)CCCC1 (stereo not shown) [Example 85, 5-pyrimidinecarboxamide, N-ethyl-2-(3-methyl-1-piperidinyl)-4-(1-phenylcyclopentyl)-N-(phenylmethyl)-]",161
9,"CCN(Cc1ccccc1)C(=O)c1cnc(NC2CCCC2)nc1C1(c2ccccc2)CCCC1 [Example 88, 5-pyrimidinecarboxamide, 2-(cyclopentylamino)-N-ethyl-4-(1-phenylcyclopentyl)-N-(phenylmethyl)-]",926
10,"CC1CCC(Nc2ncc(C(=O)NCc3ccc4c(c3)OCO4)c(C3(c4ccccc4)CCCC3)n2)CC1 (stereo not shown) [Example 90, 5-pyrimidinecarboxamide, N-(1,3-benzodioxol-5-ylmethyl)-2-[(4-methylcyclohexyl)amino]-4-(1-phenylcyclopentyl)-]",220
11,"CN1CCN(c2ncc(C(=O)NCc3ccc4c(c3)OCO4)c(C3(c4ccccc4)CCCC3)n2)CC1 [Example 91, 5-pyrimidinecarboxamide, N-(1,3-benzodioxol-5-ylmethyl)-2-(4-methyl-1-piperazinyl)-4-(1-phenylcyclopentyl)-]",257
12,"CC1CCN(c2ncc(C(=O)NCc3ccc4c(c3)OCO4)c(C3(c4ccccc4)CCCC3)n2)CC1 [Example 93, 5-pyrimidinecarboxamide, N-(1,3-benzodioxol-5-ylmethyl)-2-(4-methyl-1-piperidinyl)-4-(1-phenylcyclopentyl)-]",37
13,"CCC(C)Nc1ncc(C(=O)NCc2ccc3c(c2)OCO3)c(C2(c3ccccc3)CCCC2)n1 (stereo not shown) [Example 94, 5-pyrimidinecarboxamide, N-(1,3-benzodioxol-5-ylmethyl)-2-[(1-methylpropyl)amino]-4-(1-phenylcyclopentyl)-]",301
14,"CC1CCC(Nc2ncc(C(=O)NC(C)c3cccc4ccccc34)c(C3(c4ccccc4)CCCC3)n2)CC1 (stereo not shown) [Example 95, 5-pyrimidinecarboxamide, 2-[(4-methylcyclohexyl)amino]-N-[1-(1-naphthalenyl)ethyl]-4-(1-phenylcyclopentyl)-]",64
15,"CC(NC(=O)c1cnc(N2CCCC2)nc1C1(c2ccccc2)CCCC1)c1cccc2ccccc12 (stereo not shown) [Example 96, 5-pyrimidinecarboxamide, N-[1-(1-naphthalenyl)ethyl]-4-(1-phenylcyclopentyl)-2-(1-pyrrolidinyl)-]",148
16,"CC1CCN(c2ncc(C(=O)NC(C)c3cccc4ccccc34)c(C3(c4ccccc4)CCCC3)n2)CC1 (stereo not shown) [Example 98, 5-pyrimidinecarboxamide, 2-(4-methyl-1-piperidinyl)-N-[1-(1-naphthalenyl)ethyl]-4-(1-phenylcyclopentyl)-]",15

# Other lines, results leading:
row,EC50 [nM],Compound
1,950,"O=C(c1cnc(NC2CCCC2)nc1C1(c2ccccc2)CCCC1)N1CCc2ccccc2C1 [Example 75, isoquinoline, 2-[[2-(cyclopentylamino)-4-(1-phenylcyclopentyl)-5-pyrimidinyl]carbonyl]-1,2,3,4-tetrahydro-]"
2,775,"CC1CCN(c2ncc(C(=O)N3CCCC(C)C3)c(C3(c4ccccc4)CCCC3)n2)CC1 (stereo not shown) [Example 78, piperidine, 3-methyl-1-[[2-(4-methyl-1-piperidinyl)-4-(1-phenylcyclopentyl)-5-pyrimidinyl]carbonyl]-]"
3,285,"CC1CCCN(c2ncc(C(=O)N(C(C)C)C(C)C)c(C3(c4ccccc4)CCCC3)n2)C1 (stereo not shown) [Example 82, 5-pyrimidinecarboxamide,N,N-bis(1-methylethyl)-2-(3-methyl-1-piperidinyl)-4-(1-phenylcyclopentyl)-]"
4,605,"CCN(C)C(=O)c1cnc(N2CCCC(C)C2)nc1C1(c2ccccc2)CCCC1 (stereo not shown) [Example 83, 5-pyrimidinecarboxamide, N-ethyl-N-methyl-2-(3-methyl-1-piperidinyl)-4-(1-phenylcyclopentyl)-]"
5,334,"CCN(Cc1ccccc1)C(=O)c1cnc(N2CCC(C)CC2)nc1C1(c2ccccc2)CCCC1 [Example 86, 5-pyrimidinecarboxamide, N-ethyl-2-(4-methyl-1-piperidinyl)-4-(1-phenylcyclopentyl)-N-(phenylmethyl)-]"
6,851,"CCC(C)Nc1ncc(C(=O)N(CC)Cc2ccccc2)c(C2(c3ccccc3)CCCC2)n1 (stereo not shown) [Example 87, 5-pyrimidinecarboxamide, N-ethyl-2-[(1-methylpropyl)amino]-4-(1-phenylcyclopentyl)-N-(phenylmethyl)-]"
7,692,"O=C(NCc1ccc2c(c1)OCO2)c1cnc(NC2CC2)nc1C1(c2ccccc2)CCCC1 [Example 89, 5-pyrimidinecarboxamide, N-(1,3-benzodioxol-5-ylmethyl)-2-(cyclopropylamino)-4-(1-phenylcyclopentyl)-]"
8,57,"CC1CCCN(c2ncc(C(=O)NCc3ccc4c(c3)OCO4)c(C3(c4ccccc4)CCCC3)n2)C1 (stereo not shown) [Example 92, 5-pyrimidinecarboxamide, N-(1,3-benzodioxol-5-ylmethyl)-2-(3-methyl-1-piperidinyl)-4-(1-phenylcyclopentyl)-]"
9,19,"CC1CCCN(c2ncc(C(=O)NC(C)c3cccc4ccccc34)c(C3(c4ccccc4)CCCC3)n2)C1 (stereo not shown) [Example 97, 5-pyrimidinecarboxamide, 2-(3-methyl-1-piperidinyl)-N-[1-(1-naphthalenyl)ethyl]-4-(1-phenylcyclopentyl)-]"
